# Key:
# [1] = Visual release rate test of Bitrex in water; format: physicochemical; conditions: after 15 minutes; 0.4 mg agitated in 10 ml of water
# Description: 0.4 mg of sample was agitated in 10 ml of water and observed over 8 hours.
# [2] = UV/Vis release rate measurement of Bitrex in water; format: physicochemical; conditions: 100 mg in 40 ml water
# Description: 2 ml of the mixture was removed at each time interval for analysis.
compound,measurement,setting,value
"CC[N+](CC)(CC(=O)Nc1c(C)cccc1C)Cc1ccccc1 [uncoated Bitrex, denatonium benzoate]",visual release: state of sample in water,[1],fully dissolved
same,% release of Bitrex relative to the total content,[2]; 5 minutes,99.6%
same,% release of Bitrex relative to the total content,[2]; 15 minutes,99.8%

# Reference: US20140249031A1, “MICELLE-COATED CRYSTALLINE PARTICLES” (SYNGENTA LIMITED, priority 2011, published 2014)
